#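 Protocol summary: plate cells (96-well), add compound at 5 concentrations, incubate 48 h, interpolate endpoints linearly. The concentration for 50% growth inhibition is given as GI50. TGI: total growth inhibition.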
# Legend:
# Assay in all cases: NCI-60 cell line screen, 48 h
# [1] = test system: 786-0 renal
# [2] = test system: COLO 205 colon
# [3] = test system: KM12 colon
# [4] = test system: NCI-H226 lung
# [5] = test system: SW-620 colon
# [6] = test system: U251 CNS
# [7] = test system: UACC-62 melanoma
# [8] = test system: TK-10 renal
# [9] = test system: MALME-3M melanoma
# [10] = test system: BT-549 breast
Compound,GI50 [1] [µM],TGI [1] [µM],GI50 [2] [µM],TGI [2] [µM],GI50 [3] [µM],TGI [3] [µM],GI50 [4] [µM],TGI [4] [µM],GI50 [5] [µM],TGI [5] [µM],GI50 [6] [µM],TGI [6] [µM],GI50 [7] [µM],TGI [7] [µM],TGI [8] [µM],TGI [9] [µM],TGI [10] [µM],GI50 [9] [µM],GI50 [8] [µM]
COc1ccc(C(c2cc(OC)c(OC)c(OC)c2)n2ccnc2)cc1O (stereo unspecified),0.369,> 100,0.361,1.77,0.389,> 100,0.64,> 100,0.387,> 100,0.391,> 100,0.668,> 100,–,–,–,–,–
COC(=O)CC(NC(=O)OCc1ccccc1)C(C(C)=O)C(=O)OCc1ccccc1 (stereo unspecified),–,> 31.6,–,> 31.6,–,> 31.6,–,–,–,> 31.6,–,> 31.6,–,> 31.6,> 31.6,–,–,–,–
C[C@@H](NC1CCCC[C@H]1O)c1ccccc1 (stereo partly specified),–,> 100,–,> 100,–,> 100,–,> 100,–,> 100,–,> 100,–,> 100,> 100,> 100,–,–,–
Cc1ccc(S(=O)(=O)OCCn2cnc3nc(NC(=O)c4ccccc4)[nH]c(=O)c32)cc1,–,> 100,–,> 100,–,> 100,–,> 100,–,> 100,–,> 100,–,> 100,> 100,> 100,–,–,–
COC(=O)CCC(NC(=S)N/N=C(\C)c1cnc2ccccc2n1)C(=O)OC (stereo unspecified),–,> 100,–,5.37,–,80.4,–,> 100,–,> 100,–,> 100,–,38.5,> 100,> 100,–,–,–
C/C(=C1/N=C(c2cc([N+](=O)[O-])ccc2Cl)N(c2cccc(C)c2)C1=O)c1cc2ccccc2oc1=O,–,> 100,–,> 100,–,> 100,–,> 100,–,> 100,–,–,–,> 100,> 100,> 100,–,–,–
N#CCCN(c1ccc(C=Nc2ccccc2)cc1)S(=O)(=O)c1ccccc1,–,> 100,–,> 100,–,> 100,–,> 100,–,> 100,–,–,–,> 100,> 100,> 100,–,–,–
Cn1cc(C(=O)c2ccccc2)c2ccccc2c1=O,–,> 100,–,> 100,–,> 100,–,–,–,> 100,–,–,–,> 100,> 100,> 100,–,–,–
CN1c2ccccc2N(C(=O)c2ccc([N+](=O)[O-])cc2)C(CC(=O)O)c2cccn21 (stereo unspecified),–,> 100,–,> 100,–,> 100,–,> 100,–,> 100,–,–,–,> 100,> 100,> 100,–,–,–
Nc1ncnc2c1ncn2[C@]1(CO)C=C(CO)C(O)C1O (stereo partly specified),–,> 100,–,> 100,–,> 100,–,> 100,–,> 100,–,> 100,–,–,> 100,> 100,–,–,–
COC(=O)C(C(=O)C(=O)Nc1c(C)cccc1C)c1cnc2ccccc2n1 (stereo unspecified),–,> 100,–,> 100,–,> 100,–,> 100,–,> 100,–,> 100,–,> 100,> 100,> 100,–,–,–
CC(=O)OCC1OC(n2cc(F)c(=O)[nH]c2=O)C(NC(=O)N(CCCl)N=O)C(OC(C)=O)C1OC(C)=O (stereo unspecified),–,> 100,–,> 100,–,> 100,–,–,–,> 100,–,> 100,–,> 100,> 100,> 100,–,–,–
Cn1c2c(c3ccccc31)CCN(CCCCN1CCCCC1)C2=O,–,> 100,–,> 100,–,–,–,–,–,> 100,–,> 100,–,66,> 100,–,–,–,–
CN1C(=O)CCC1(O)C1C=CC=CC1 (stereo unspecified),–,> 100,–,> 100,–,> 100,–,> 100,–,> 100,–,> 100,–,> 100,> 100,> 100,–,–,–
CC1=Nc2ccccc2S/C1=C(/C)NNS(=O)(=O)c1ccc(C)cc1,–,> 100,–,> 100,–,> 100,–,> 100,–,> 100,–,> 100,–,> 100,> 100,> 100,–,–,–
COc1ccc(NC(=O)C(=O)c2c(O)c3ccc(O)cc3oc2=O)c([N+](=O)[O-])c1,–,> 100,–,> 100,–,> 100,–,> 100,–,> 100,–,–,–,> 100,> 100,> 100,–,–,–

Compound,GI50 [1] [µM],TGI [1] [µM],GI50 [2] [µM],TGI [2] [µM],GI50 [3] [µM],TGI [3] [µM],GI50 [4] [µM],TGI [4] [µM],GI50 [5] [µM],TGI [5] [µM],GI50 [6] [µM],TGI [6] [µM],GI50 [7] [µM],TGI [7] [µM],TGI [8] [µM],TGI [9] [µM],TGI [10] [µM],GI50 [9] [µM],GI50 [8] [µM]
O=C(/C=C/c1cc(Cl)cc(Cl)c1O)c1cccc(O)c1,–,> 100,–,32.7,–,> 100,–,30.6,–,> 100,–,80.4,–,> 100,> 100,87.3,–,–,–
O=C(NCCCCCCCCCCCCNC(=O)c1cccc2ccccc12)c1cccc2ccccc12,–,> 71.7,–,> 100,–,> 100,–,> 82.2,–,> 100,–,> 59.5,–,> 100,> 87.1,> 100,–,–,–
O=C(Nc1ccc2[nH]nc(-c3ccncc3)c2c1)[C@@H]1CCN(CC(=O)N2CCN(c3ccc(-c4ncccn4)cc3)CC2)C1,47.4,> 100,< 0.012,> 82.3,0.431,> 100,> 100,> 100,0.101,> 100,0.613,18.9,–,–,–,–,> 100,–,–
O=C1NC(Cc2ccc(O)cc2)C(=O)N2CCCC12 (stereo unspecified),–,> 100,–,> 100,–,> 100,–,> 100,–,> 100,–,> 100,–,> 100,> 100,> 100,–,–,–
O=C(Oc1cccc2cccnc12)c1cc2c(cc1Cl)SC(N(c1ccc(F)cc1)S(=O)(=O)c1ccc(Br)s1)=NS2(=O)=O,> 100,> 100,18.5,50.8,44.2,> 100,66.4,> 100,25.3,> 100,26,95.6,32.6,> 100,> 100,49.6,–,18.8,38.1
Cc1nc(-n2nc(-c3ccccc3)cc2-c2ccccc2)sc1C(=O)/C=C/c1ccc(/C=C/C(=O)c2sc(-n3nc(-c4ccccc4)cc3-c3ccccc3)nc2C)cc1,–,33.4,–,39.1,–,35.8,–,71.2,–,> 100,–,34.3,–,–,87.6,40.2,–,–,–
N.N.N.N.N.[Co+3].[I-].[N-]=[N+]=[N-],> 100,> 100,> 100,> 100,> 100,> 100,–,–,> 100,> 100,> 100,> 100,89.7,> 100,> 100,> 100,–,> 100,> 100
O=C(N/C(=C\c1ccc(Cl)cc1)c1nc2ccccc2[nH]1)c1ccccc1,–,43.9,–,35.6,–,33.6,–,44.9,–,64,–,53.1,–,32.3,63.8,> 100,–,–,–
CN(CCN1C(=O)c2cc([N+](=O)[O-])cc3cc([N+](=O)[O-])cc(c23)C1=O)CCN1C(=O)c2cc([N+](=O)[O-])cc3cc([N+](=O)[O-])cc(c23)C1=O,–,13.7,–,14,–,> 35,–,9.69,–,16.7,–,> 100,–,3.8,> 100,4.31,–,–,–
CN(C)C=Nc1ccn(CCO)c(=O)n1,–,> 100,–,> 100,–,> 100,–,> 100,–,> 100,–,> 100,–,> 100,> 100,> 100,–,–,–
COc1ccc(C/C(=N/O)C(=O)NCCc2cc(Br)c(OCCCN(C)C)c(Br)c2)cc1Br,–,48.1,–,40.2,–,34.9,–,–,–,31.8,–,32.8,–,–,59.8,44.6,–,–,–
Cc1c(Cl)cccc1NC(=O)C(=O)C(C(=O)c1ccccc1-c1ccccc1)C1OC(=O)c2ccccc21 (stereo unspecified),–,33.3,–,39.7,–,39.4,–,18.1,–,49,–,29.2,–,37.3,57.6,28.8,–,–,–
Cc1cn(C2CC(O)C(COC(=O)c3ccccc3)O2)c(=O)[nH]c1=O (stereo unspecified),–,> 100,–,> 100,–,> 100,–,–,–,> 100,–,> 100,–,> 100,> 100,> 100,–,–,–
CCC(C)CCOC(=O)c1ccc(N=Cc2ccc(C=Nc3ccc(C(=O)OCCC(C)CC)cc3)cc2)cc1 (stereo unspecified),–,> 100,–,> 100,–,–,–,> 100,–,> 100,–,> 100,–,> 100,–,> 100,–,–,–
Cc1cc(NCCCCCCCCNc2cc(C)nc3cc(N)ccc23)c2ccc(N)cc2n1,–,53.7,–,31.2,–,37.8,–,93.3,–,–,–,24.3,–,38.4,> 100,–,–,–,–
COC(=O)C(Cc1cc(OC)c(OC)c(OC)c1)C(=O)OC,–,> 320,–,> 320,–,> 320,–,–,–,> 320,–,> 320,–,> 320,> 320,> 320,–,–,–

# Reference: PubChem BioAssay (NCI)
